Measurements reported in patent publication US10294230B2, “3,3-difluoropiperidine carbamate heterocyclic compounds as NR2B NMDA receptor antagonists” (Rugen Holdings (Cayman) Limited, priority 2015, dated 2019).

How the values were obtained:
NR2B = NR2B (Homo sapiens (Human), UniProt Q05586+Q13224); conditions: cited from earlier work
[1] = system: immobility in forced swim test; assay: Forced Swim Test (FST) in mice; format: in vivo
From the text: (§1) The forced swim test (FST) also known at the behavioural despair test was used to evaluate antidepressant activity (Porsolt et al., 1977 Arch. Int. Pharmacodyn. 229: 327-336, Porsolt et al., 1977, Eur. J. Pharmacol. 47:379-391). Mice or rats that are forced to swim in a situation from which they cannot escape, rapidly become immobile. Drugs with antidepressant activity, such as imipramine, reduce the amount of time spent in the immobile state. Therefore, the amount of immobility time during a test conducted after drug administration represents a useful indicator of antidepressant activity (Lucki et al 2001 Psychopharmacology 155:315-322; Porsolt et al., 1977, Nature 266:730-732).
(§2) Test compound E1-8.2 was administered as the free base.
Mice were evaluated in a single swimming test session of 6 minutes. Mice were placed in a transparent plastic cylinder 24 cm high with a diameter of 13 cm containing 10 cm of water with ambient temperature control generally from 22±2° C. Mice were placed in the water for 6 minutes and the duration of immobility during the last 4 minutes was measured.
Animals were observed by a blinded observer. The observer judged the animal to be immobile when it ceased all activity (struggling, swimming, jumping etc.) and floated passively atop the water. The amount of time each animal spent in the immobile state (and the latency to the first bout of immobility) was recorded and used for statistical analysis of compound effect. Group differences were evaluated by student's t-test (reference substance) or one-way ANOVA followed by post-hoc Dunnett's test (test substances). […]
Male mice (strain NLMN) weighing 25-35 g were used for testing. […] The mice were videotaped for 6 minutes, and the last 4 minutes of video were analyzed by a blinded observer off-line. […] The amount of time each animal spent in the immobile state was recorded and used for statistical analysis of compound effect. Group differences were evaluated by student's t-test or one-way ANOVA followed by post-hoc Dunnett's test. […]

[2] = system: immobility in forced swim test; assay: Forced Swim Test (FST) in rats; format: in vivo
From the text: as §1, §2
Male Wistar rats weighing 197-251 g were used for the rat test. Rats were evaluated according to a two-session procedure with a swimming session of 15 minutes on the first day of the experiment (Session 1) followed 24 hours later by a 5-minute swimming test (Session 2). […] Rats were placed in the water 24 h later for 5 minutes (Session 2) and the duration of immobility was measured.
Animals were observed by a blinded observer. […] The amount of time each animal spent in the immobile state (and the latency to the first bout of immobility) was recorded and used for statistical analysis of compound effect. […]

Sequence of NR2B (Q13224 27-1484, species assumed, other chains not shown): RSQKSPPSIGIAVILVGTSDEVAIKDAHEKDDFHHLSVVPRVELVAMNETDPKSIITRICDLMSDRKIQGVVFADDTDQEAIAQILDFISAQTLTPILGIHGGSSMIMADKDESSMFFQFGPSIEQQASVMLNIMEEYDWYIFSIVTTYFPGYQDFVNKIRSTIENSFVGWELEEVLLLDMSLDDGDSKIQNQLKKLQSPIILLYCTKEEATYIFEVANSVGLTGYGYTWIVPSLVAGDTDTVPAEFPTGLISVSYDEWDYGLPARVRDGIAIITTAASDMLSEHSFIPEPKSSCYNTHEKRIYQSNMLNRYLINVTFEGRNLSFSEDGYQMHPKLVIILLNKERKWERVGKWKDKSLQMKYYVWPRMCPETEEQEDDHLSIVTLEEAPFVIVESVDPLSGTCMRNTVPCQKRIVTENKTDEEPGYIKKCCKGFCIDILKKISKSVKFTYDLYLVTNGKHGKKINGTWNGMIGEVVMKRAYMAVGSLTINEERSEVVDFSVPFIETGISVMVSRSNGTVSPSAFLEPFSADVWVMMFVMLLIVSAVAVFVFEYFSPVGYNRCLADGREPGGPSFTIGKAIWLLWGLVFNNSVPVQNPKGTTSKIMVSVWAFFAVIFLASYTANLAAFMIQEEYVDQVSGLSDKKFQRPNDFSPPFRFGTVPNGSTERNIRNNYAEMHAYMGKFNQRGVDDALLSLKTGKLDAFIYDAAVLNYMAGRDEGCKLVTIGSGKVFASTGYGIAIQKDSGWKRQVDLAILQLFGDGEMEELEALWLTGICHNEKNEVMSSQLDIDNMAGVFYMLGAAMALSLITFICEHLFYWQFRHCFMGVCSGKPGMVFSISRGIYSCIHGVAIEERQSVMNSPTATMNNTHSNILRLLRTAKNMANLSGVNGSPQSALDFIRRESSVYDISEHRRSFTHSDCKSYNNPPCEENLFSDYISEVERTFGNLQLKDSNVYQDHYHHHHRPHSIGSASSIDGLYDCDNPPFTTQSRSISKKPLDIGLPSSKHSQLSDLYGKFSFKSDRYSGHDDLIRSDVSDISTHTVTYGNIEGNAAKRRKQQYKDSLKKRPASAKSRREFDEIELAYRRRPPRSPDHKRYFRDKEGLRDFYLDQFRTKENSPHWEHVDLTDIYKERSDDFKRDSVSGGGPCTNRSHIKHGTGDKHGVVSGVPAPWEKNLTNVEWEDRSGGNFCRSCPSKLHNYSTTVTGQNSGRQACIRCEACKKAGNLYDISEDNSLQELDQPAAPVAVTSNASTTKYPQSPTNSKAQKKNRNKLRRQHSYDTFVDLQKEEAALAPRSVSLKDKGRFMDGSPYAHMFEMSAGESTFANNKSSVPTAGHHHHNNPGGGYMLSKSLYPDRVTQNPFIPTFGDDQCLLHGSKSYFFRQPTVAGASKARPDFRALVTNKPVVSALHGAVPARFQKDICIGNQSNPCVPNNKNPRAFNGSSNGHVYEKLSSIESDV

SMILES	potency against NR2B (NR2B) [nM]	immobility time, antidepressant activity ([1]; 32 mpk i.p. once 30 min before the test)	immobility time, antidepressant activity ([1]; 64 mpk p.o. once 60 min before the test)	immobility time, antidepressant activity ([1]; 128 mpk p.o. once 60 minutes before the test on Day 7)	immobility time, antidepressant activity ([2]; 32 mpk i.p. 3 times: 24 h, 4 h and 30 min before Session 2)	immobility time, antidepressant activity ([2]; 64 mpk p.o. 3 times: 24 h, 4 h and 60 min before Session 2)
Cc1ccc(COC(=O)N2CCC(CNc3ncccn3)C(F)C2)cc1 (single isomer, unassigned) [3R,4S enantiomer]	25.5					
CN(C)CCCN1c2ccccc2CCc2ccccc21 [imipramine]		expected antidepressant activity	expected antidepressant activity	expected antidepressant activity	expected antidepressant activity	expected antidepressant activity
